Assay results from the supplement of paper PMC11451515.

Test system: P12-Ichikawa
Assay: cell viability relative to DMSO control; higher = less cytotoxic
Details: 48 h
Procedure, shortened: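 Viability, reported as a per-plate percentage of DMSO wells with cell-free wells as background, came from CellTiter-Glo One luminescence. Reading took place after 48 h at 37°C. Before that, NOMO1 or SEM (500 cells/well) or P12-Ichikawa (1000 cells/well) leukemia cells, adapted for at least four passages in each medium, were seeded in 1536-well plates (5 μl) and pin-dosed with library compounds in DMSO, 47 μM to 0.79 nM over 11 threefold points.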

[1] = HPLM + 10% dialyzed FBS, 0.000781 µM
[2] = HPLM + 10% dialyzed FBS, 0.00234 µM
[3] = HPLM + 10% dialyzed FBS, 0.00702 µM
[4] = HPLM + 10% dialyzed FBS, 0.0211 µM
[5] = HPLM + 10% dialyzed FBS, 0.0632 µM
[6] = HPLM + 10% dialyzed FBS, 0.19 µM
[7] = HPLM + 10% dialyzed FBS, 0.569 µM
[8] = HPLM + 10% dialyzed FBS, 1.71 µM
[9] = HPLM + 10% dialyzed FBS, 5.12 µM
[10] = HPLM + 10% dialyzed FBS, 15.4 µM
[11] = HPLM + 10% dialyzed FBS, 46.1 µM
[12] = RPMI 5 mM glucose + 10% FBS, 0.000781 µM
[13] = RPMI 5 mM glucose + 10% FBS, 0.00234 µM
[14] = RPMI 5 mM glucose + 10% FBS, 0.00702 µM
[15] = RPMI 5 mM glucose + 10% FBS, 0.0211 µM
[16] = RPMI 5 mM glucose + 10% FBS, 0.0632 µM
[17] = RPMI 5 mM glucose + 10% FBS, 0.19 µM
[18] = RPMI 5 mM glucose + 10% FBS, 0.569 µM
[19] = RPMI 5 mM glucose + 10% FBS, 1.71 µM
[20] = RPMI 5 mM glucose + 10% FBS, 5.12 µM
[21] = RPMI 5 mM glucose + 10% FBS, 15.4 µM
[22] = RPMI 5 mM glucose + 10% FBS, 46.1 µM
[23] = RPMI 5 mM glucose + 10% dialyzed FBS, 0.000781 µM
[24] = RPMI 5 mM glucose + 10% dialyzed FBS, 0.00234 µM
[25] = RPMI 5 mM glucose + 10% dialyzed FBS, 0.00702 µM
[26] = RPMI 5 mM glucose + 10% dialyzed FBS, 0.0211 µM
[27] = RPMI 5 mM glucose + 10% dialyzed FBS, 0.0632 µM
[28] = RPMI 5 mM glucose + 10% dialyzed FBS, 0.19 µM
[29] = RPMI 5 mM glucose + 10% dialyzed FBS, 0.569 µM
[30] = RPMI 5 mM glucose + 10% dialyzed FBS, 1.71 µM
[31] = RPMI 5 mM glucose + 10% dialyzed FBS, 5.12 µM
[32] = RPMI 5 mM glucose + 10% dialyzed FBS, 15.4 µM
[33] = RPMI 5 mM glucose + 10% dialyzed FBS, 46.1 µM

SMILES | cell viability [1] | cell viability [2] | cell viability [3] | cell viability [4] | cell viability [5] | cell viability [6] | cell viability [7] | cell viability [8] | cell viability [9] | cell viability [10] | cell viability [11] | cell viability [12] | cell viability [13] | cell viability [14] | cell viability [15] | cell viability [16] | cell viability [17] | cell viability [18] | cell viability [19] | cell viability [20] | cell viability [21] | cell viability [22] | cell viability [23] | cell viability [24] | cell viability [25] | cell viability [26] | cell viability [27] | cell viability [28] | cell viability [29] | cell viability [30] | cell viability [31] | cell viability [32] | cell viability [33]
N#C/C(=C1/Nc2ccccc2S1)c1ccnc(OCc2ccc(CN3CCOCC3)cc2)n1 | 106% | 105% | 110% | 112% | 110% | 119% | 109% | 110% | 105% | 40.1% | 37.1% | 103% | 105% | 116% | 109% | 111% | 109% | 118% | 109% | 102% | 28.8% | 33.1% | 101% | 106% | 106% | 93.1% | 105% | 104% | 108% | 107% | 102% | 44.5% | 38.6%
Cc1c(C(=O)c2cccc3ccccc23)c2cccc3c2n1[C@H](CN1CCOCC1)CO3 | 98.5% | 93.4% | 93.5% | 97% | 89.5% | 90.2% | 91.4% | 91.9% | 80.8% | 82% | 26.2% | 83.1% | 76.7% | 81.9% | 78.4% | 87.8% | 77.5% | 80.1% | 84.5% | 76.3% | 74.7% | 12.9% | 86% | 92.5% | 85.4% | 82.6% | 94.2% | 86.9% | 90.2% | 84.6% | 81% | 78.6% | 28.5%
COC(=O)[C@H](c1ccccc1Cl)N1CCc2sccc2C1 | 95.8% | 99.1% | 100% | 109% | 108% | 113% | 107% | 110% | 102% | 15.7% | 12.9% | 101% | 113% | 120% | 117% | 120% | 125% | 122% | 113% | 115% | 21.4% | 14.1% | 91.6% | 105% | 109% | 111% | 115% | 111% | 118% | 117% | 104% | 45.9% | 18.7%
Nc1ccc([S+](=O)([O-])Nc2ncccn2)cc1 | 118% | 120% | 124% | 95.8% | 128% | 131% | 126% | 125% | 125% | 119% | 126% | 115% | 114% | 122% | 74.2% | 133% | 118% | 127% | 126% | 132% | 133% | 106% | – | – | – | – | – | – | – | – | – | – | –
O=[S+]([O-])(NCCNC/C=C/c1ccc(Br)cc1)c1cccc2cnccc12 | 108% | 110% | 102% | 105% | 107% | 107% | 106% | 100% | 97% | 95.3% | 95.8% | 99.1% | 108% | 96.4% | 89% | 97.6% | 108% | 102% | 99.2% | 96.6% | 81.5% | 72% | 95.9% | 95.6% | 103% | 96.2% | 99.6% | 101% | 102% | 103% | 95.8% | 77% | 77.8%
C1COC(NC(C2CC2)C2CC2)=N1 | 82.7% | 92% | 84.2% | 94.6% | 88.9% | 90.7% | 95.5% | 85.4% | 88.9% | 100% | 77.1% | 89.2% | 103% | 106% | 98.4% | 103% | 97.6% | 93.8% | 91.3% | 94.6% | 95.5% | 77.7% | 79.5% | 80.5% | 87.1% | 91.6% | 87.2% | 82.4% | 88.6% | 83.4% | 91.6% | 89.3% | 58.8%
CCC(C1CCC(C)C(O1)C(C)C(O)C(C)C(=O)C(CC)C2OC\3(O[C@]4(CC[C@@](C)(O4)C5CC[C@@](O)(CC)C(C)O5)C(O)\C=C3)C(C)CC2C)C([O-])=O (stereo not given in full) | 103% | 112% | 109% | 101% | 106% | 106% | 105% | 82.8% | 74.5% | 74.8% | 64.5% | 85% | 111% | 101% | 111% | 104% | 109% | 100% | 73.7% | 60.9% | 56.1% | 42.5% | 96.4% | 107% | 109% | 113% | 112% | 108% | 86.2% | 68.8% | 55.7% | 44.9% | 41.1%
CC(C)[N+]1(C)C2CCC1CC(OC(=O)C(CO)c1ccccc1)C2.O.[Br-] (stereo not given) | 98.5% | 111% | 116% | 112% | 123% | 124% | 123% | 109% | 50% | 14.1% | 7.93% | 125% | 123% | 129% | 126% | 128% | 125% | 137% | 132% | 127% | 52.5% | 13.8% | 113% | 113% | 119% | 117% | 124% | 112% | 118% | 115% | 102% | 34% | 19.3%
CC(C)Cn1cnc2c(N)nc3ccccc3c21 | 124% | 113% | 107% | 116% | 115% | 112% | 113% | 106% | 87.6% | 75.1% | 89.9% | 113% | 123% | 116% | 119% | 111% | 115% | 110% | 107% | 106% | 106% | 85.1% | 111% | 111% | 109% | 115% | 115% | 112% | 105% | 107% | 104% | 102% | 81%
COc1cc2ncnc(Nc3cccc(Cl)c3)c2cc1OC | 112% | 107% | 97.3% | 99.6% | 89.2% | 73% | 68.3% | 44.8% | 46.1% | 45.4% | 3.51% | 97.7% | 99.1% | 98.5% | 107% | 87.9% | 66.8% | 69.1% | 32.7% | 25.1% | 22.9% | 19% | 111% | 102% | 109% | 106% | 90.8% | 72.1% | 69.4% | 32% | 25.1% | 23% | 15.7%
COc1cc(Cl)cn2c(-c3cccc(NC4CNC4)n3)cnc12 | 125% | 121% | 131% | 125% | 129% | 130% | 131% | 135% | 129% | 127% | 139% | – | – | – | – | – | – | – | – | – | – | – | – | – | – | – | – | – | – | – | – | – | –
CCOC(=O)O[C@]1(C(=O)OCCl)CC[C@H]2[C@@H]3CCC4=CC(=O)C=C[C@]4(C)[C@H]3[C@@H](O)C[C@@]21C | 97.6% | 102% | 99.3% | 107% | 105% | 118% | 101% | 104% | 86.1% | 101% | 102% | 95.9% | 95.8% | 95.7% | 95% | 110% | 102% | 111% | 100% | 76% | 97.1% | 88.5% | 89% | 93.3% | 94.6% | 98.3% | 99.3% | 91.1% | 98.4% | 102% | 83.4% | 98.5% | 90.3%
O=C1N\C=N/C2=C1C=N[NH]2 | 83.8% | 89.6% | 83.5% | 92.1% | 83.9% | 93.2% | 91.1% | 87.6% | 72.4% | 77.8% | 25.4% | 83.9% | 91.4% | 84% | 87.9% | 80.6% | 81.7% | 82.8% | 79.1% | 84.2% | 84.4% | 67.3% | 81.7% | 86.2% | 79.1% | 88.7% | 78.7% | 79.3% | 90.5% | 85.2% | 87.1% | 85.2% | 68%
COc1ccc2[nH]cc(CCNC(C)=O)c2c1 | – | – | – | – | – | – | – | – | – | – | – | 125% | 125% | 112% | 121% | 122% | 123% | 112% | 111% | 109% | 108% | 112% | – | – | – | – | – | – | – | – | – | – | –
COc1cc(OC)c(C(=O)CCCN2CCCC2)c(OC)c1 | 116% | 120% | 128% | 119% | 120% | 116% | 112% | 113% | 118% | 117% | 116% | 119% | 123% | 132% | 130% | 125% | 124% | 122% | 109% | 112% | 111% | 111% | – | – | – | – | – | – | – | – | – | – | –
N#CC[C@H](C1CCCC1)n1cc(-c2ncnc3[nH]ccc23)cn1 | 95.7% | 95.2% | 98.5% | 98.1% | 98.6% | 90.3% | 89.4% | 91.8% | 72.9% | 52.8% | 40% | 93.7% | 95.7% | 93.4% | 92.6% | 103% | 89.2% | 83.1% | 95.4% | 75.4% | 54.5% | 23.3% | 90.8% | 89% | 86.3% | 87.4% | 89.6% | 88.3% | 82.2% | 87.7% | 70.4% | 41.1% | 23.3%
CCCCCN(CCC12CC3CC(CC(C3)C1)C2)C(=O)NCCCc1ccncc1 | 113% | 112% | 110% | 114% | 115% | 104% | 109% | 108% | 104% | 97.1% | 97.8% | 101% | 109% | 112% | 107% | 107% | 105% | 111% | 106% | 109% | 92.7% | 99.1% | 115% | 110% | 109% | 118% | 114% | 114% | 109% | 113% | 105% | 101% | 98.9%
